Measured values from patent US20100075984A1, “DICARBONYLIC COMPOUNDS WITH ANTIBACTERIAL ACTIVITY” (LABORATORIOS SALVAT, S.A., priority 2006, published 2010).
≈ marks a conversion by molar mass, not a printed value.

How the values were obtained:
[1] = system: Streptococcus faecalis (BCM-010); assay: Antimicrobial activity, microdilution in microtiter plate (MIC); format: cell-based; settings: Streptococcus faecalis BCM-010 (SALVAT collection), two-fold serial dilutions, 96 well plates, incubation 24 h at 35° C.; for MIC: Enterococcus faecalis
Method: (§1) In order to assess the antimicrobial activity of the compounds of the present invention a method of microdilution in microtiter plate was used. The compounds were diluted in a nutritious medium and, subsequently, distributed by two-fold serial dilutions in 96 well plates. Then, plates were inoculated with a bacterial suspension. After incubation for 24 h at 35° C. the minimum inhibitory concentration (MIC) of the drug in μg/mL was determined as the lowest concentration of compound which inhibits the growth of the bacterium. Results included in table 7 illustrate the antimicrobial activity of some of the compounds of the present invention in comparison with thus obtained with two compounds (linezolid and eperezolid) of a known antimicrobial activity. The antimicrobial activity of the compound versus Streptococcus faecalis (BCM-010, strain designation as for SALVAT collection) and Staphylococcus aureus (BCM-012, strain designation as for SALVAT collection), respectively, is shown in the different columns.

[2] = system: Staphylococcus aureus (BCM-012); assay: as above; format: cell-based; settings: Staphylococcus aureus BCM-012 (SALVAT collection); two-fold serial dilutions, 96 well plates; incubation 24 h at 35° C.
Method: as §1

Row | SMILES | BCM-010 MIC [1] [µg/mL] | BCM-012 MIC [2] [µg/mL] | MIC [1] [µg/mL] | MIC [2] [µg/mL]
1 | O=C(NCC(=O)N1CCN(c2ccc(-c3cc(CNc4ccon4)on3)cc2F)CC1)c1cccc(O)c1 [I_15] | 0.25 to 0.5 | 0.25 to 0.5 | – | –
2 | Cc1ccc(C(=O)N[C@@H](C)C(=O)N2CCN(c3ccc(-c4cc(CO)on4)cc3F)CC2)cn1 [I_213] | 1 | 1 | – | –
3 | C[C@@H](NC(=O)c1ncccc1N)C(=O)N1CCN(c2ccc(-c3cc(CNc4ccon4)on3)cc2F)CC1 [I_171] | 1 | 2 | – | –
4 | CC(=O)Nc1ccc(C(=O)NCC(=O)N2CCN(c3ccc(-c4cc(CNc5ccon5)on4)cc3F)CC2)cn1 [I_117] | 1 | 1 | – | –
5 | Nc1ccc(C(=O)NCC(=O)N2CCN(c3ccc(-c4cc(CNc5ccon5)on4)cc3F)CC2)c(O)c1 [I_32] | 0.25 to 0.5 | 0.25 to 0.5 | – | –
6 | CC(=O)NC[C@H]1CN(c2ccc(N3CCN(C(=O)CO)CC3)c(F)c2)C(=O)O1 [Eperezolid, eperezolid, reference compound] | – | – | 4 (≈ 10.1 µM) | 2 (≈ 5.07 µM)
7 | C#CCn1c(C)nc2cc(C(=O)NCC(=O)N3CCN(c4ccc(-c5cc(CNc6ccon6)on5)cc4F)CC3)ccc21 [I_84] | 2 | 1 | – | –
8 | CNCC(=O)NCC(=O)N1CCN(c2ccc(-c3cc(CNc4ccon4)on3)cc2F)CC1 [I_152] | 2 | 2 | – | –
9 | O=C(NCC(=O)N1CCN(c2ccc(-c3cc(CO)on3)cc2F)CC1)c1ccc2cccc(O)c2n1 [I_192] | 0.5 | 0.5 | – | –
10 | O=CNCC(=O)N1CCN(c2ccc(-c3cc(CNc4ccon4)on3)cc2F)CC1 [I_1] | 2 | 1 | – | –
11 | Cc1ccc(C(=O)N[C@H](C(=O)N2CCN(c3ccc(-c4cc(CNc5ccon5)on4)cc3F)CC2)C(C)C)cn1 [I_170] | 4 | 4 | – | –
12 | CN(CC(=O)N1CCN(c2ccc(-c3cc(CNc4ccon4)on3)cc2F)CC1)C(=O)c1ccc2[nH]cnc2c1 [I_155] | 2 | 2 | – | –
13 | Cc1nc2cc(C(=O)NCC(=O)N3CCN(c4ccc(-c5cc(CNc6ccon6)on5)cc4F)CC3)ccc2n1CC1CC1 [I_82] | 2 | 2 | – | –
14 | O=C(NCC(=O)N1CCN(c2ccc(-c3cc(CNc4ccon4)on3)cc2F)CC1)c1ccc([N+](=O)[O-])o1 [I_58] | 0.5 to 1 | 0.25 | – | –
15 | O=C(NCC(=O)N1CCN(c2c(F)cc(-c3cc(CNc4ccon4)on3)cc2F)CC1)c1ccc2cccc(O)c2n1 [I_160] | 0.25 | 0.25 | – | –
16 | CC(=O)NC[C@H]1CN(c2ccc(N3CCOCC3)c(F)c2)C(=O)O1 [Linezolid, linezolid, reference compound] | – | – | 4 (≈ 11.9 µM) | 2 (≈ 5.93 µM)
17 | Cc1ncc(-c2cccc(C(=O)NCC(=O)N3CCN(c4ccc(-c5cc(CNc6ccon6)on5)cc4F)CC3)c2)s1 [I_51] | 1 | 1 | – | –
18 | O=C(NCC(=O)N1CCN(c2ccc(-c3cc(CNc4ccon4)on3)cc2F)CC1)Nc1ccc([N+](=O)[O-])cc1 [Ia_1, 1-[2-(4-{2-Fluoro-4-[5-(isoxazol-3-ylaminomethyl)isoxazol-3-yl]phenyl}piperazin-1-yl)-2-oxoethyl]-3-(4-nitrophenyl)urea] | – | – | 2 (≈ 3.54 µM) | 1 (≈ 1.77 µM)
19 | O=C(NC(C(=O)N1CCN(c2ccc(-c3cc(CNc4ccon4)on3)cc2F)CC1)c1ccccc1)c1ccc2[nH]cnc2c1 (centres unmarked) [I_153] | 2 | 2 | – | –
